{"source": "paper PMC4623604", "about": "“Discovery of Small Molecules that Inhibit the Disordered Protein, p27^Kip1” (Scientific Reports, 2015)", "key": {"p27-KID": {"biological_target": "T1, p27-KID (Homo sapiens, UniProt P46527)", "T1 construct": "6xHis (N, cleaved yes); made in house; host or cells: E. coli (pET28a)", "T1 sequence (P46527 22-105)": "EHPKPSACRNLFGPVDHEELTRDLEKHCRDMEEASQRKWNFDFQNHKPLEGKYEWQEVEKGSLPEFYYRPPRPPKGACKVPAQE", "experiment": "NMR 2D 1H-15N in-phase HSQC titration, binding affinity for p27:small molecule interactions", "settings": "sixteen-point titration, 100 μM 15N-p27-KID, inhibitor 0-3 mM", "protocol": "1D and 2D NMR analysis of these molecules led to the identification of 15 additional p27-D2-binding compounds (six with Group 1-like binding features and nine with Group 2-like features; Suppl. Fig. 3b and Suppl. Table 1b).\nSixteen point titrations of representative fragment hits from Group 1 and Group 2 (SJ572710 and SJ572403, respectively) into ^15N-p27-KID (100 μM) were recorded using an adopted “in-phase” 2D ^1H-^15N HISQC with proton decoupling during ^15N chemical shift labeling achieved with a WALTZ16 composite pulse with an amplitude of 7.1 kHz[54][55]. All experiments were collected at a Bruker Avance 800 MHz spectrometer equipped with TCI cryogenic gradient probe. The following molar ratios of ^15N-p27-KID (100 μM) to inhibitor were used: 1:0, 1:0.1, 1:1.5, 1:3, 1:4.5, 1:6, 1:7.5, 1:9, 1:10.5, 1:12, 1:15, 1:18, 1:21, 1:24, 1:27 and 1:30. Each spectrum was recorded with 256 (t1,max = 31.0 ms) and 1024 (t2,max = 106.5 ms) complex points in the ^15N and ^1H dimensions, respectively, with eight transients collected per point. The spectral resolution of the ^1H and ^15N dimensions was 2.4 and 1.7 Hz, respectively. […] The data was processed using the NMRPipe package[56] and analyzed using in-house scripts written in Python using the Scipy computing libraries and Mathematica (Wolfram Research). […]"}, "p27-D2/Cdk2/cyclin A": {"biological_target": "T2, p27-D2/Cdk2/cyclin A (Homo sapiens, UniProt P46527)", "T2 construct": "p27-D2 (residues 58-105 of human p27); 6xHis (N, cleaved yes); made in house; host or cells: E. coli for p27-D2", "T2 sequence (P46527 58-105)": "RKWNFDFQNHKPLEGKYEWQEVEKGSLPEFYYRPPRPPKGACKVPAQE", "experiment": "Cdk2/cyclin A kinase activity assay in the presence of p27-D2 (restoration of activity)", "type": "biochemical", "protocol": "Figure 6 The small molecule SJ403 displaces p27-D2 from Cdk2/cyclin A and partially restores Cdk2 kinase activity. Analysis of Cdk2 kinase activity [within the Cdk2/cyclin A complex (200 pM) using Histone H1 as the substrate] in the presence of p27-D2 (200 nM) and varied concentrations of SJ403 (from 10 μM to 3 mM) (a) and varied concentrations of SJ403 alone (b). Cdk2 is partially active under the starting conditions in (a) and activity is enhanced through addition of SJ403. In the absence of p27-D2 (b), addition of SJ403 is associated with Cdk2 inhibition. All experiments were performed in triplicate and average values and the standard deviations of the means are shown.\nCdk2/Cyclin A (200 pM) was mixed with Histone H1 (15 μM; EMD Millipore), p27-D2 (200 nM) and varied amounts of lyophilized SJ403 and incubated overnight at 4 °C. The effect of the SJ403 compound on Cdk2 activity was determined by performing similar experiments in the absence of p27-D2. […] The reactions were quenched by addition of SDS-gel loading buffer (5 μL) and then analyzed by SDS-PAGE (10 μL). The gels were dried at 70 °C under vacuum and a phosphoimager (GE Healthcare, Piscataway, NJ) was used to quantify the ^32P-Histone H1 bands. IC50 values were determined by curve fitting using KaleidaGraph software. […]"}}, "data": [{"compound": "CCn1c(C)c(C)n2c3c(=O)n(C)c(=O)n(C)c3nc12", "note": "[SJ403]", "values": [{"measurement": "Kd", "setting": "p27-KID", "result": "2.2 ± 0.3", "unit": "mM"}, {"measurement": "Cdk2 kinase activity after titration of SJ403 (of full kinase activity)", "setting": "p27-D2/Cdk2/cyclin A; 200 nM p27-D2, 200 pM Cdk2/cyclin A, SJ403 10 μM to 3 mM, start 13%", "result": "~ 20%"}, {"measurement": "increase in Cdk2 kinase activity", "setting": "p27-D2/Cdk2/cyclin A; from 13% to ~20% of full activity, 200 nM p27-D2", "result": "> 50", "unit": "%"}]}]}
